{
  "source": "patent US11649233B2",
  "about": "“Halo-allylamine SSAO/VAP-1 inhibitor and use thereof” (Nanjing Transthera Biosciences Co., Ltd., priority 2017, dated 2023)",
  "key": {"[1]": {"target": "rhVAP-1 (Homo sapiens (Human), UniProt Q16853)", "sequence (Q16853 whole entry)": "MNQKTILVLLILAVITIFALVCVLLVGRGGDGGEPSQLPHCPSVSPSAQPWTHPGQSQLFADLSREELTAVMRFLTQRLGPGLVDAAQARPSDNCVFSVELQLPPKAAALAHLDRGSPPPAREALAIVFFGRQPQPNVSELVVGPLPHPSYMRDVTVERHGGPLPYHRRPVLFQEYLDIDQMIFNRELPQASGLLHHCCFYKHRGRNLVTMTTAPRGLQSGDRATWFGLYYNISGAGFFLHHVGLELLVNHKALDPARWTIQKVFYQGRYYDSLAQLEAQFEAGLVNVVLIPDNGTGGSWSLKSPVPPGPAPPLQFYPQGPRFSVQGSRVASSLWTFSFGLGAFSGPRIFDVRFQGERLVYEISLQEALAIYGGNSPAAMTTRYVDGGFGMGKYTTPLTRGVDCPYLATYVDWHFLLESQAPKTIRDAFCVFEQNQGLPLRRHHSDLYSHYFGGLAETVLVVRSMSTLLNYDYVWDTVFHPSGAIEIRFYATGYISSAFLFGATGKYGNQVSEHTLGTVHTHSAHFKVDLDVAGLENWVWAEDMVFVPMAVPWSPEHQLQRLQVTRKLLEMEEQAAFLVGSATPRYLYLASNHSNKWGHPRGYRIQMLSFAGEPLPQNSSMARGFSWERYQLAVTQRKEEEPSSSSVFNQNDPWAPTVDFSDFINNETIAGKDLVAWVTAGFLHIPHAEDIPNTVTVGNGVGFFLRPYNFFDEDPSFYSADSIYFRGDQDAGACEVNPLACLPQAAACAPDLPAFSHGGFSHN", "experiment": "Inhibition activity of the compounds on the rhVAP-1 enzyme (Amplex Red/HRP fluorescence, benzylamine substrate)", "assay_type": "biochemical", "conditions": "30 minutes pre-incubation at 37° C.", "experimental": "1. Inhibition Activity of the Compounds on the rhVAP-1 Enzyme\nMultifunctional microplate reader (MD, FlexStation 3), black bottom-impermeable 96-well plate (Corning), rhVAP-1 (PeproTech)\nAn appropriate amount of the test compound was dissolved in DMSO to 10 mM and stored. Before the experiment, an appropriate amount of 10 mM test compound mother liquor was diluted to 10 μM solution with DMSO. Then 3-fold gradient dilution with DMSO was performed, and 10 concentration gradients were formed.\nAn appropriate amount of protein diluent was added to the rhVAP-1 powder to obtain 1 mg/mL of the mother liquor for storage. Before the experiment, the dilution with PBS provided a 4×concentration of the enzyme solution.\nAn appropriate amount of benzylamine was added to PBS and dissolved to obtain 200 mM of the benzylamine solution. 2 mM Amplex Red mother liquor and 500 U/mL HRP mother liquor were added. The dilution with PBS provided 2×concentration substrate mixed solution.\nFirst, 10 μL of compound solutions of different concentrations, 25 μL of 4×rhVAP-1 enzyme solution and 15 μL of PBS were added to a 96-well plate, evenly mixed by oscillation, and incubated at 37° C. for 30 minutes. Then 50 μL of 2×substrate mixed solution was added to each well, and immediately the detection was performed with the microplate reader in a condition of an exciting light at 565 nm, an emitting light at 590 nm, the fluorescence intensity for detecting each well of 5 minutes/run, and a total detection time of 25 minutes. The inhibition rate was calculated according to the following formula: V(RFU/min)=(Ft(RFU)−F0(RFU))/(Time(min)) Inhibition rate (%)=100%−Vcmpd(RFU/min)/V max(RFU/min)×100%\n(§1) V: the fluorescence change rate; Ft: fluorescence reading at the time point t; F0: fluorescence reading at the time point 0; Time: time period t; Vcmpd: the fluorescence change rate of the test compound; Vmax: the Max well fluorescence change rate.\n(§2) The log values of the concentrations were taken as the X-axis and the percent inhibition rates were taken as the Y-axis, and the dose-effect curve was fitted using the log(inhibitor) vs. response-Variable slope of the analytical software GraphPad Prism 5 to obtain the IC50 value of each compound for enzyme activity."}, "[2]": {"target": "MAO-B (Homo sapiens (Human), UniProt P27338)", "sequence (P27338 whole entry)": "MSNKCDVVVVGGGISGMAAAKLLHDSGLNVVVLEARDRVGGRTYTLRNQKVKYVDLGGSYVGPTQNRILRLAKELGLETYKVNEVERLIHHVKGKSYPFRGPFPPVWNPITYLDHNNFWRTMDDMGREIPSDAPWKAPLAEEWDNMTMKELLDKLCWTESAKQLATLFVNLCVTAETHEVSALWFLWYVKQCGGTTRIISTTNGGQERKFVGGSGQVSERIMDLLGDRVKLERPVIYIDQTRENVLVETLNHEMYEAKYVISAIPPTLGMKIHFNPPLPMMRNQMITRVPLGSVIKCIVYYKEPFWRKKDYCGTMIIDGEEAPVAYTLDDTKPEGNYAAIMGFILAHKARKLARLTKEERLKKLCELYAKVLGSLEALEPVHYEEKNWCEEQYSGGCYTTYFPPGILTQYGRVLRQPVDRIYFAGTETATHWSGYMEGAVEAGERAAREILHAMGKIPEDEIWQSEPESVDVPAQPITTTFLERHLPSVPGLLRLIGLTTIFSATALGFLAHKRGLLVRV", "experiment": "Selectivity of the compounds for MAO-B enzyme (MAO-Glo)", "assay_type": "biochemical", "conditions": "60 minutes pre-incubation at 37° C.", "experimental": "(§3) 2. Selectivity of the Compounds for MAO-A/B Enzymes\n(§4) Microplate reader (Perkin Elmer, Envision), 384 well plates (Perkin Elmer), centrifuge (Eppendorf), MAO-Glo™ (Promega), MAO-A (Active Motif) and MAO-B (Active Motif).\n(§5) An appropriate amount of the test compound was dissolved in DMSO to 10 mM and stored. Before the experiment, an appropriate amount of 10 mM test compound mother liquor was diluted to 100 μM solution with DMSO. Then 4-fold gradient dilution with DMSO was performed, and 6 concentration gradients were formed.\n(§6) The MAO-A/B mother liquor was diluted to 2×concentration enzyme solution with the assay buffer solution for the MAO-A/B.\n(§7) The mother liquor of the MAO-A/B substrate mixed solution was diluted to 2×concentration substrate mixed solution with the assay buffer solution for the MAO-A/B.\n(§8) 200 nL of compound solutions of different concentrations or solvent\n(§9) and 10 μL of 2×MAO-A/B enzyme solution were added to a 384-well plate, evenly mixed by oscillation, and incubated at 37° C. for 60 minutes. Then 10 μL of 2×substrate mixed solution was added to each well, and immediately the detection was performed with the microplate reader in a condition of an exciting light at 535 nm, an emitting light at 587 nm, the fluorescence intensity for detecting each well of 5 minutes/run, and a total detection time of 25 minutes.\n(§10) The inhibition rate was calculated according to the following formula: V(RFU/min)=(Ft(RFU)−F0(RFU))/(Time(min)) Inhibition rate (%)=100%−Vcmpd(RFU/min)/V max(RFU/min)×100%\nas §1, §2"}, "[3]": {"target": "MAO-A (Homo sapiens (Human), UniProt P21397)", "sequence (P21397 whole entry)": "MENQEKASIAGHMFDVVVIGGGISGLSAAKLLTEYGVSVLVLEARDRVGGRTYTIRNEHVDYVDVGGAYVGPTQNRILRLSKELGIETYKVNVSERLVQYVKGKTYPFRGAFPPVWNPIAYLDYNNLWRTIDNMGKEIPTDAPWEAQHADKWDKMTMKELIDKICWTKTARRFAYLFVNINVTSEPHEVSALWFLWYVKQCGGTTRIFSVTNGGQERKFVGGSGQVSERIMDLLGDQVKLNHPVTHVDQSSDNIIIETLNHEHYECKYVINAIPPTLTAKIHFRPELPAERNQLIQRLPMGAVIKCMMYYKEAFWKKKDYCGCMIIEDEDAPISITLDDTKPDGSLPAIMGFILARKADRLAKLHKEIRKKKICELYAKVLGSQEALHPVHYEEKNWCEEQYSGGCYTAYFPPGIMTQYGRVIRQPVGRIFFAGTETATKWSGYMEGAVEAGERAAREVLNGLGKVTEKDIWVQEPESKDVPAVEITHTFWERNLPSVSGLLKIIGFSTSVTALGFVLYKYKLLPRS", "experiment": "Selectivity of the compounds for MAO-A enzyme (MAO-Glo)", "assay_type": "biochemical", "conditions": "60 minutes pre-incubation at 37° C.", "experimental": "as §3, §4, §5, §6, §7, §8, §9, §10, §1, §2"}, "[4]": {"experiment": "In vitro stability test in the dog plasma", "assay_type": "in vitro ADME", "conditions": "Beagle dog plasma, 37° C., 2 hours, 0.2 μM", "experimental": "Biological Example 2: In Vitro Stability Test of the Compound of the Present Invention in the Dog Plasma\nTest compound: about 2 mg of test compound was prepared with DMSO into a 5 mM stock solution, then diluted with DMSO to 1 mM solution, and finally diluted with water to 50 μM test compound working solution for use.\nTermination solution: about 2 mg of tolbutamide compound was firstly prepared with DMSO into a 1 mg/mL stock solution, finally diluted with acetonitrile to 100 ng/mL termination solution, and stored at 4° C. for later use.\n(1) Frozen Beagle dog plasma was pre-incubated and thawed in a 37° C. water bath constant temperature oscillator for use.\n(2) 10 μL of test compound (10 μM) was added to 490M (Beagle dog plasma, final concentration of the test substance was 0.2 μM, two duplicate samples.\n(3) The sample was evenly mixed in vortex and incubated in a 37° C. water bath constant temperature oscillator.\n(4) At the corresponding time points (T=0 h, 0.5 h, 1 h, 2 h; sample at 0 h was not incubated), 400 μL of the termination solution was added to 40 μL of the reaction solution obtained by reacting the test compound of step (2) and the components in the blood plasma, and the resulting mixture was evenly mixed and frozen at −80° C. for storage. […]"}, "[5]": {"experiment": "Stability test in human liver microsome", "assay_type": "in vitro ADME", "conditions": "human liver microsome 0.5 mg protein/mL, compound 1 μM, β-NADPH", "experimental": "Biological Example 3: Stability Test of the Compounds of the Present Invention in Human Liver Microsome\nThe composition of the incubation system:\n(1) The liver microsome (20 mg protein/mL) was removed from the −80° C. refrigerator, pre-incubated in a 37° C. water bath constant temperature oscillator for 3 minutes, and thawed for use.\n(2) A mixed solution of the incubation system (excluding compound and β-NADPH) according to the above “composition of the incubation system” for the test was prepared, and pre-incubated in a 37° C. water bath constant temperature oscillator for 2 minutes.\n(3) Control group (excluding β-NADPH): 30 μL of water and 30 μL of compound working solution (concentration: 10 μM) were added to 240 μL of the mixed solution of the incubation system of step (2), and vortexed for 30 seconds to mix well. The total reaction volume was 300 μL. A duplicate sample was prepared. The sample was incubated in a 37° water bath constant temperature oscillator. The timing began and the sampling time points were set at 0 minute and 60 minutes.\n(4) Sample group: 70 μL β-NADPH solution (10 mM) and 70 μL compound working solution (concentration: 10 μM) were added to 560 μL of the mixed solution in step (2). The total reaction volume was 700 μL. The resulting mixture was vortexed for 30 seconds to mix well. A duplicate sample was prepared. The sample was incubated in a 37° C. water bath constant temperature oscillator. The timing began and the sampling time points were set at 0 minute, 5 minutes, 10 minutes, 20 minutes, 30 minutes, and 60 minutes after timing.\n(5) After vortexing for 3 minutes, the sample was centrifuged at 12000 rpm for 5 minutes.\n(6) 150 μL of water was added to 50 μL of the supernatant. The resulting mixture was evenly mixed in vortex, and the sample LC/MS/MS analysis was performed."}},
  "note": "Counter-ions that a name gives are not always drawn.",
  "data": [
    {"smiles": "NC/C(=C\\F)COc1ccc2c(c1)CCN(C1CC1)C2=O", "note": "[Hydrochloride of Compound 5, (E)-6-((2-(aminomethyl)-3-fluoroallyl)oxy)-2-cyclopropyl-3,4-dihydroisoquinolin-1(2H)-one]", "values": [
      {"measurement": "IC50", "setting": "[1]", "result": 18, "unit": "nM"},
      {"measurement": "IC50", "setting": "[2]", "result": 6.3, "unit": "µM"},
      {"measurement": "IC50", "setting": "[3]", "result": 1300, "unit": "nM"},
      {"measurement": "Retention Rate", "setting": "[4]", "result": 98.6, "unit": "%"},
      {"measurement": "ClH", "setting": "[5]", "result": 4.63, "unit": "mL/min/kg"}
    ]}
  ]
}
